From US20260224486A1, “DIANHYDROHEXITOL BASED IONIZABLE LIPIDS FOR NUCLEIC ACID DELIVERY” (SANOFI PASTEUR INC., priority 2023, published 2026)

Experiments:
[1] = Lipid nanoparticle size and polydispersity index by dynamic light scattering (Malvern Zetasizer); format: physicochemical; conditions: hEPO mRNA LNP, Process A, Cationic Lipid:DMG-PEG2000:Cholesterol:DOPE 40:1.5:28.5:30 mol %, N/P 4
Text: The lipid nanoparticles in the examples of the present invention were formulated using Process A of WO 2018/089801 (see, e.g., Example 1 and FIG. 1 of WO 2018/089801). Process A (“A”) relates to a conventional method of encapsulating mRNA by mixing mRNA with a mixture of lipids, without first pre-forming the lipids into lipid nanoparticles. In an exemplary process, an ethanolic solution of a mixture of lipids (cationic lipid, phosphatidylethanolamine, cholesterol, and polyethylene glycol-lipid) at a fixed lipid to mRNA ratio were combined with an aqueous buffered solution of target mRNA at an acidic pH under controlled conditions to yield a suspension of uniform LNPs. After ultrafiltration and diafiltration into a suitable diluent system, the resulting nanoparticle suspensions were diluted to final concentration, filtered, and stored frozen at −80° C. until use.
(§1) Lipid nanoparticle formulations of Table 1 were prepared by Process A. All of the lipid nanoparticle formulations comprised hEPO mRNA and the different lipids (Cationic Lipid: DMG-PEG2000: Cholesterol: DOPE) in mol % ratios of 40:1.5:28.5:30 (Cationic Lipid: DMG-PEG2000: Cholesterol: DOPE).
The Polydispersity Index (Pdl) of lipid nanoparticles can be determined by diluting the formulation in 10% trehalose at about 0.1 mg/ml mRNA concentration and then measuring the size on Malvern zetasizer. The lipid nanoparticle size can be obtained with Malvern Zetasizer Nano-ZS.
Dynamic light scattering (DLS) measurements were performed using a Malvern Instruments Zetasizer with a backscattering detector angle of 173° and a 4-mW, 633-nm He—Ne laser (Worcestershire, UK). The samples were analyzed by diluting in 10% Trehalose and measuring the size and Poly dispersity Index (PDI) in an optical grade polystyrene cuvette.

[2] = test system: A/Tasmania/503/2020 (H3N2) virus; test: Influenza titer: HAI assay on sera of mice immunized IM with Modified Tasmania H3 mRNA-lipid nanoparticles; conditions: Balb/c mice, 0.4 ug per mouse Modified Tasmania H3 mRNA-LNP IM on day 0 and day 21
[3] = mRNA encapsulation efficiency of lipid nanoparticles (RiboGreen assay); format: physicochemical; conditions: hEPO mRNA LNP, Process A, Cationic Lipid:DMG-PEG2000:Cholesterol:DOPE 40:1.5:28.5:30 mol %, N/P 4
Text: In embodiments, the lipid nanoparticle encapsulates a nucleic acid, optionally an mRNA encoding a peptide or protein. In embodiments, the lipid nanoparticle encapsulates an mRNA encoding a peptide or protein, optionally for use in a vaccine. In embodiments, the peptide is an antigen. As used herein, the phrase “encapsulation percentage” refers to the fraction of therapeutic agent (e.g. mRNA) that is effectively encapsulated within a liposomal-based vehicle (e.g. a lipid nanoparticle) relative to the initial fraction of therapeutic agent present in the lipid phase. In embodiments, the lipid nanoparticles have an encapsulation percentage for mRNA of at least 50%. In embodiments, the lipid nanoparticles have an encapsulation percentage for mRNA of at least 55%. In embodiments, the lipid nanoparticles have an encapsulation percentage for mRNA of at least 60%. In embodiments, the lipid nanoparticles have an encapsulation percentage for mRNA of at least 65%. In embodiments, the lipid nanoparticles have an encapsulation percentage for mRNA of at least 70%. In embodiments, the lipid nanoparticles have an encapsulation percentage for mRNA of at least 75%. In embodiments, the lipid nanoparticles have an encapsulation percentage for mRNA of at least 80%. In embodiments, the lipid nanoparticles have an encapsulation percentage for mRNA of at least 85%. In embodiments, the lipid nanoparticles have an encapsulation percentage for mRNA of at least 90%. In embodiments, the lipid nanoparticles have an encapsulation percentage for mRNA of at least 95%. In embodiments, the encapsulation percentage is calculated by performing the Ribogreen assay (Invitrogen) with and without the presence of 0.1% Triton-X 100.
as §1
The RiboGreen Assay is a fluorescence-based method for the determination of mRNA concentration (Total and Free) and % encapsulation using Quant-iT™ RiboGreen® RNA reagent in mRNA containing lipid nanoparticles.
• To each of the standards (Blank, mRNA-1, mRNA-2. mRNA-3, mRNA-4, mRNA-5) and Samples (free mRNA and total mRNA), add 1.0 mL of 200-fold Ribogreen Reagent Solution and gently mix by inversion. This is a 2× Dilution. • Add 200 μL of each standard and sample in triplicate using the reverse pipetting technique in a 96-well Costar Black with Clear Background Plate. Ensure no bubbles are present in the plate before the fluorescence reading. • Read the fluorescence signal using the below instrument parameters: • Read Type: Fluorescence, Bottom Read • Excitation: 485 nm; Cut-off: 515 nm; Emission: 530 nm • Plate Type: 96-well Costar Black with Clear Background
The average fluorescence from each calibration standard is plotted against the concentration to generate a linear calibration curve using the MS Excel software. The coefficient of determination (R^2) of calibration curve must be R^2>0.99.
[formula] • Where, • Y=average fluorescence value • m: slope • x: concentration (pg/mL) • c: y-intercept • Using the linear equation, calculate the concentration of free and total mRNA concentration in the test sample by replacing the y value in the equation with the average fluorescence value of each respective sample • Once the concentration is determined, the actual concentration in the sample can be back-calculated by multiplying the concentration in the test sample with the dilution factor (DF) as follows:
[formula] [formula] • Concentration of encapsulated mRNA can be determined by subtracting the concentration of free mRNA from the total mRNA. • % Encapsulation can then be calculated by taking the ratio of encapsulated mRNA over total mRNA and multiplying the result with 100.

BALB/cJ mice = test: Delivery of hEPO mRNA by intramuscular administration of LNPs; serum hEPO by ELISA; format: in vivo, Mouse; conditions: for hEPO 24 Hr (ng/ml) Mean: mouse serum 24 hours post single IM injection of 0.1 μg hEPO mRNA LNP
Method in brief: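 Female BALB/cJ mice, 6-8 weeks, given a single IM injection of 0.1 μg hEPO mRNA LNPs into right gastrocnemius under light isoflurane. Serum taken at 6 and 24 h post dose and terminally by cardiac puncture; hEPO measured by ELISA ("shaker" protocol), samples diluted 1:40 to 1:100.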

[4] = Table 3, isomannide-derived lipids, mouse serum 6 hours post single IM injection of 0.1 μg hEPO mRNA LNP
[5] = Table 3, isomannide-derived lipids
[6] = Table 2, isosorbide-derived lipids, mouse serum 6 hours post single IM injection of 0.1 μg hEPO mRNA LNP
[7] = Table 4, further lipids, mouse serum 6 hours post IM injection of hEPO mRNA LNP as in example 3

Row | Structure (SMILES) | Polydispersity Index (PDI) [1] | Size (nm) [1] [nm] | HAI GMT [2] | Encapsulation efficiency (EE) % [3] [%] | hEPO 6 Hr (ng/mL) Mean (BALB/cJ mice; [4]) [ng/mL] | hEPO 24 Hr (ng/ml) Mean (BALB/cJ mice; [5]) [ng/mL] | hEPO 6 Hr (ng/ml) Mean (BALB/cJ mice; [6]) [ng/mL] | hEPO 24 Hr (ng/ml) Mean (BALB/cJ mice; Table 2, isosorbide-derived lipids) [ng/mL] | hEPO 6 Hr (ng/ml) Mean (BALB/cJ mice; [7]) [ng/mL]
1 | CCCCCCCCCCC(O)CN(CCCC(=O)O[C@H]1CO[C@H]2[C@@H]1OC[C@H]2OC(=O)CCCN(CC(O)CCCCCCCCCC)CC(O)CCCCCCCCCC)CC(O)CCCCCCCCCC (stereo in doubt) [Compound 3] | 0.11 | 95 | 320 | 86 | 37.4 | 18.9 |  |  | 
2 | CCCCCCCCCCC(O)CN(CCCC(=O)O[C@H]1CO[C@H]2[C@@H]1OC[C@H]2OC(=O)CCCN(CC(O)CCCCCCCCCC)CC(O)CCCCCCCCCC)CC(O)CCCCCCCCCC (stereo partly shown) [Compound 24] | 0.11 | 88 | 190 | 83 |  |  | 30.2 | 19.4 | 
3 | CCCCCCCCCCCOC(=O)CCCC(O)CN(CCCC(=O)O[C@@H]1CO[C@H]2[C@@H]1OC[C@H]2OC(=O)CCCN(CC(O)CCCCCCCCCC)CC(O)CCCCCCCCCC)CC(O)CCCCCC(=O)OC(CCCCCCCC)CCCCCCCC (stereo partly shown) [Compound 9] | 0.1 | 114 |  | 91 | 30.7 | 19.8 |  |  | 
4 | CCCCCCCCC(O)CN(CCCC(=O)O[C@@H]1CO[C@H]2[C@@H]1OC[C@H]2OC(=O)CCCN(CC(O)CCCCCCCC)CC(O)CCCCCCCC)CC(O)CCCCCCCC (stereo partly shown) [Compound 1] | 0.14 | 93 |  | 85 | 42.5 |  |  |  | 
5 | CCCCCCCCCCC(O)CN(CCCC(=O)N[C@H]1CO[C@H]2[C@@H]1OC[C@@H]2NC(=O)CCCN(CC(O)CCCCCCCCCC)CC(O)CCCCCCCCCC)CC(O)CCCCCCCCCC (stereo partly shown) [Compound 52] | 0.14 | 74 |  | 95 |  |  |  |  | 72.7
6 | CCCCCCCCCCCCC(O)CN(CCCOC(=O)O[C@@H]1CO[C@H]2[C@@H]1OC[C@H]2OC(=O)OCCCN(CC(O)CCCCCCCCCCCC)CC(O)CCCCCCCCCCCC)CC(O)CCCCCCCCCCCC (stereo partly shown) [Compound 37] | 0.25 | 65 |  | 95 | 27.4 |  |  |  | 
7 | CCCCCCCCC(O)CN(CCCC(=O)O[C@H]1CO[C@H]2[C@@H]1OC[C@H]2OC(=O)CCCN(CC(O)CCCCCCCC)CC(O)CCCCCCCC)CC(O)CCCCCCCC (stereo partly shown) [Compound 20] | 0.13 | 95 |  | 89 |  |  | 25.2 |  | 
8 | CCCCCCCCC(O)CN(CCCC(=O)N[C@H]1CO[C@H]2[C@@H]1OC[C@@H]2NC(=O)CCCN(CC(O)CCCCCCCC)CC(O)CCCCCCCC)CC(O)CCCCCCCC (stereo partly shown) [Compound 51] | 0.12 | 71 |  | 81 |  |  |  |  | 47.6
